Reference: patent US10399940B2, “Substituted pyrrolidines and methods of use” (AbbVie S.à.r.l., priority 2016, dated 2019)
Where two headings read alike, the source gives them in different places.

Biological target: T1, F508delCFTR (Homo sapiens, UniProt P13569, DEL508-508)
T1 construct: expressed in transfected cells; host or cells: CFBE41o- (human lung derived epithelial cell line), doxycycline-inducible expression
Test: Cell Surface Expression-Horse Radish Peroxidase (CSE-HRP) assay
Assay type: cell-based
Details: CFBE41o-F508delCFTR-HRP cells; for Maximum % activity (with co-corrector): with co-corrector (2 μM); for Maximum % activity (with co-corrector) / Maximum % activity (without co-corrector): normalized to on-plate positive control, highest concentration 20 μM
In short: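 Surface F508delCFTR-HRP was read by luminol luminescence after 18–24 h compound exposure at 33 °C, without or with 2 μM co-corrector. Doses were eight 3-fold steps from 20 μM, in doxycycline-induced (0.5 μg/mL, 72 h) CFBE41o- cells. % activity was scaled to the on-plate 2 μM positive control minus DMSO; EC50 came from a variable-slope sigmoid fit.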

[1] = test compound without co-corrector, 18-24 hours at 33° C., read-out: EC50 (without co-corrector)
[2] = with co-corrector (2 μM of 3-[(2R,4R)-4-({[1-(2,2-difluoro-1,3-benzodioxol-5-yl)cyclopropyl]carbonyl}amino)-7-methoxy-3,4-dihydro-2H-chromen-2-yl]benzoic acid), read-out: EC50 (with co-corrector)

T1 sequence (P13569 with tags, fused parts or gaps DEL508-508): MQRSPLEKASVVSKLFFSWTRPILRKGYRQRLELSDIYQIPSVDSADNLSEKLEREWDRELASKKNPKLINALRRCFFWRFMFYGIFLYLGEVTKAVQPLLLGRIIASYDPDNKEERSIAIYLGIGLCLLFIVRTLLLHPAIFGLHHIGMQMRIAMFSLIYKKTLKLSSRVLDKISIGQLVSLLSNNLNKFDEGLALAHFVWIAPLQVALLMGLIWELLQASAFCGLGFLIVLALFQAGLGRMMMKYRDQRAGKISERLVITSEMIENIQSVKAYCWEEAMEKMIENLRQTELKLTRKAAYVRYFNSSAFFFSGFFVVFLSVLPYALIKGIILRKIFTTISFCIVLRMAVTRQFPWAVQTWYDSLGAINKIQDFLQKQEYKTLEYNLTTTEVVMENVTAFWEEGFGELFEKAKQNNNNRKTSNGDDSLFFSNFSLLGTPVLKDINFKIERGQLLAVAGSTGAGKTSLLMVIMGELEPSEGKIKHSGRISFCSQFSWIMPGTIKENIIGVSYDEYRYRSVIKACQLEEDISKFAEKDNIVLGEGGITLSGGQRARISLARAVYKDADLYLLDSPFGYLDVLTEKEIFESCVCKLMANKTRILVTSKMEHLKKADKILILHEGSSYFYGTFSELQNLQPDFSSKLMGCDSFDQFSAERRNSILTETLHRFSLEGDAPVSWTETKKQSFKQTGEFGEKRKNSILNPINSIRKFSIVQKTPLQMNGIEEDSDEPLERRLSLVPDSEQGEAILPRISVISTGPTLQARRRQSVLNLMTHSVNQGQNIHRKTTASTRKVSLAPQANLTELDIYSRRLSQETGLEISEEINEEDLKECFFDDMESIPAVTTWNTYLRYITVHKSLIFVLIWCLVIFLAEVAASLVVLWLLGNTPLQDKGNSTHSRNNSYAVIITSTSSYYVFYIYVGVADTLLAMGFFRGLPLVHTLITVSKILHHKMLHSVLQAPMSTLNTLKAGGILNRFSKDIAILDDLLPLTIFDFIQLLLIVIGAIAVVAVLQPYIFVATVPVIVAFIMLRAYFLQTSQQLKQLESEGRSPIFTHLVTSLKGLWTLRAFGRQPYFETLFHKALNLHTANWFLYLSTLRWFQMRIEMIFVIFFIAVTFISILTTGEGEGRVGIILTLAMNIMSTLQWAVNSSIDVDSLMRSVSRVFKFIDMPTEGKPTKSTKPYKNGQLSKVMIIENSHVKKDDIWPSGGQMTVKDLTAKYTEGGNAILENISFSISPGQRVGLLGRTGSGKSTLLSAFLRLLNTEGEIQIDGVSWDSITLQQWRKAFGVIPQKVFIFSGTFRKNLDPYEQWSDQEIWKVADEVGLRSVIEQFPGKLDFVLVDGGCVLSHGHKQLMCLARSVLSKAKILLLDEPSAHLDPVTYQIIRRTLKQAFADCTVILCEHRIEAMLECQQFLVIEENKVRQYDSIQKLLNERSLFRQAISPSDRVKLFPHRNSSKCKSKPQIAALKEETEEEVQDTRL

EC50 [1] [nM] | EC50 [2] [nM] | Maximum % activity (with co-corrector) | Maximum % activity (without co-corrector) | SMILES
1000 to 10000 | 1000 to 10000 | ++ (≥150 and <350) | + (<100) | COc1ncc(N2CC(F)(F)C2)cc1CO[C@H]1[C@H](C(C)(C)C)[C@@H](C(=O)O)N(C(=O)OC(C)C)[C@H]1c1ccccc1 [Example 84, (2S,3R,4S,5S)-3-tert-butyl-4-{[5-(3,3-difluoroazetidin-1-yl)-2-methoxypyridin-3-yl]methoxy}-5-phenyl-1-{[(propan-2-yl)oxy]carbonyl}pyrrolidine-2-carboxylic acid]
1000 to 10000 | 1000 to 10000 | ++ (≥150 and <350) | + (<100) | COc1ncc(N2CCC(F)(F)C2)cc1CO[C@H]1[C@H](C(C)(C)C)[C@@H](C(=O)O)N(C(=O)OC(C)C)[C@H]1c1ccccc1 [Example 85, (2S,3R,4S,5S)-3-tert-butyl-4-{[5-(3,3-difluoropyrrolidin-1-yl)-2-methoxypyridin-3-yl]methoxy}-5-phenyl-1-{[(propan-2-yl)oxy]carbonyl}pyrrolidine-2-carboxylic acid]
1000 to 10000 | < 1000 | +++ (≥350) | ++ (≥100 and <200) | COc1ncc(C(F)(F)F)cc1CO[C@H]1[C@H](C(C)(C)C)[C@@H](C(=O)O)N(C(=O)OC(C)C)[C@H]1c1ccccc1Br [Example 86, (2S,3R,4S,5S)-5-(2-bromophenyl)-3-tert-butyl-4-{[2-methoxy-5-(trifluoromethyl)pyridin-3-yl]methoxy}-1-{[(propan-2-yl)oxy]carbonyl}pyrrolidine-2-carboxylic acid]
1000 to 10000 | 1000 to 10000 | +++ (≥350) | ++ (≥100 and <200) | COc1ncc(C(F)(F)F)cc1CO[C@H]1[C@H](C(C)(C)C)[C@@H](C(=O)O)N(C(=O)OC(C)C)[C@H]1c1ccccc1C(C)C [Example 87, (2S,3R,4S,5S)-3-tert-butyl-4-{[2-methoxy-5-(trifluoromethyl)pyridin-3-yl]methoxy}-1-{[(propan-2-yl)oxy]carbonyl}-5-[2-(propan-2-yl)phenyl]pyrrolidine-2-carboxylic acid]
1000 to 10000 | < 1000 | +++ (≥350) | ++ (≥100 and <200) | COc1ncc(C(F)(F)F)cc1CO[C@H]1[C@H](C(C)(C)C)[C@@H](C(=O)O)N(C(=O)[C@@H]2CCCO2)[C@H]1c1ccccc1 [Example 88, (2S,3R,4S,5S)-3-tert-butyl-4-{[2-methoxy-5-(trifluoromethyl)pyridin-3-yl]methoxy}-1-[(2S)-oxolane-2-carbonyl]-5-phenylpyrrolidine-2-carboxylic acid]
1000 to 10000 | < 1000 | +++ (≥350) | ++ (≥100 and <200) | COc1ncc(C(F)(F)F)cc1CO[C@H]1[C@H](C(C)(C)C)[C@@H](C(=O)O)N(C(=O)[C@@H]2CCCCO2)[C@H]1c1ccccc1 [Example 89, (2S,3R,4S,5S)-3-tert-butyl-4-{[2-methoxy-5-(trifluoromethyl)pyridin-3-yl]methoxy}-1-[(2S)-oxane-2-carbonyl]-5-phenylpyrrolidine-2-carboxylic acid]
1000 to 10000 | 1000 to 10000 | +++ (≥350) | + (<100) | C=CCOC(=O)N1[C@H](C(=O)O)[C@@H](C(C)(C)C)[C@H](OCc2cc(C(F)(F)F)cnc2OC)[C@@H]1c1ccccc1 [Example 90, (2S,3R,4S,5S)-3-tert-butyl-4-{[2-methoxy-5-(trifluoromethyl)pyridin-3-yl]methoxy}-5-phenyl-1-{[(prop-2-en-1-yl)oxy]carbonyl}pyrrolidine-2-carboxylic acid]
1000 to 10000 | 1000 to 10000 | +++ (≥350) | ++ (≥100 and <200) | COc1ncc(C(F)(F)F)cc1CO[C@H]1[C@H](C(C)(C)C)[C@@H](C(=O)O)N(C(=O)[C@H]2CCCCO2)[C@H]1c1ccccc1 [Example 91, (2S,3R,4S,5S)-3-tert-butyl-4-{[2-methoxy-5-(trifluoromethyl)pyridin-3-yl]methoxy}-1-[(2R)-oxane-2-carbonyl]-5-phenylpyrrolidine-2-carboxylic acid]
1000 to 10000 | 1000 to 10000 | +++ (≥350) | ++ (≥100 and <200) | COc1ncc(C(F)(F)F)cc1CO[C@H]1[C@H](C(C)(C)C)[C@@H](C(=O)O)N(C(=O)OC(C)C)[C@H]1c1ccccc1C1CC1 [Example 92, (2S,3R,4S,5S)-3-tert-butyl-5-(2-cyclopropylphenyl)-4-{[2-methoxy-5-(trifluoromethyl)pyridin-3-yl]methoxy}-1-{[(propan-2-yl)oxy]carbonyl}pyrrolidine-2-carboxylic acid]
1000 to 10000 | 1000 to 10000 | +++ (≥350) | ++ (≥100 and <200) | COc1ncc(C2CCC2)cc1CO[C@H]1[C@H](C(C)(C)C)[C@@H](C(=O)O)N(C(=O)OC(C)C)[C@H]1c1ccccc1C(C)C [Example 93, (2S,3R,4S,5S)-3-tert-butyl-4-[(5-cyclobutyl-2-methoxypyridin-3-yl)methoxy]-1-{[(propan-2-yl)oxy]carbonyl}-5-[2-(propan-2-yl)phenyl]pyrrolidine-2-carboxylic acid]
> 10000 | < 1000 | + (<150) | + (<100) | COc1ccc(C(F)(F)F)cc1CO[C@@H]1[C@H](C(C)(C)C)[C@@H](C(=O)O)N(C(=O)OC(C)C)[C@H]1c1cccnc1OC(C)C [Example 94, (2S,3R,4R,5S)-3-tert-butyl-4-{[2-methoxy-5-(trifluoromethyl)phenyl]methoxy}-1-{[(propan-2-yl)oxy]carbonyl}-5-{2-[(propan-2-yl)oxy]pyridin-3-yl}pyrrolidine-2-carboxylic acid]
1000 to 10000 | < 1000 | +++ (≥350) | ++ (≥100 and <200) | COc1ncc(C2CCC2)cc1CO[C@H]1[C@H](C(C)(C)C)[C@@H](C(=O)O)N(C(=O)OC(C)C)[C@H]1c1cccnc1OC(C)C [Example 95, (2S,3R,4S,5S)-3-tert-butyl-4-[(5-cyclobutyl-2-methoxypyridin-3-yl)methoxy]-1-{[(propan-2-yl)oxy]carbonyl}-5-{2-[(propan-2-yl)oxy]pyridin-3-yl}pyrrolidine-2-carboxylic acid]
< 1000 | < 1000 | +++ (≥350) | +++ (≥200) | COc1ncc(C(F)(F)F)cc1CO[C@H]1[C@H](C(C)(C)C)[C@@H](C(=O)O)N(C(=O)[C@@H]2CCCCO2)[C@H]1c1ccccc1C(C)C [Example 96, (2S,3R,4S,5S)-3-tert-butyl-4-{[2-methoxy-5-(trifluoromethyl)pyridin-3-yl]methoxy}-1-[(2S)-oxane-2-carbonyl]-5-[2-(propan-2-yl)phenyl]pyrrolidine-2-carboxylic acid]
1000 to 10000 | 1000 to 10000 | +++ (≥350) | ++ (≥100 and <200) | COc1ncc(C(F)(F)F)cc1CO[C@H]1[C@H](C(C)(C)C)[C@@H](C(=O)O)N(C(=O)[C@H]2CCCCO2)[C@H]1c1ccccc1C(C)C [Example 97, (2S,3R,4S,5S)-3-tert-butyl-4-{[2-methoxy-5-(trifluoromethyl)pyridin-3-yl]methoxy}-1-[(2R)-oxane-2-carbonyl]-5-[2-(propan-2-yl)phenyl]pyrrolidine-2-carboxylic acid]
< 1000 | < 1000 | +++ (≥350) | ++ (≥100 and <200) | COc1ncc(C(F)(F)F)cc1CO[C@H]1[C@H](C(C)(C)C)[C@@H](C(=O)O)N(C(=O)[C@@H]2CCCO2)[C@H]1c1ccccc1C(C)C [Example 98, (2S,3R,4S,5S)-3-tert-butyl-4-{[2-methoxy-5-(trifluoromethyl)pyridin-3-yl]methoxy}-1-[(2S)-oxolane-2-carbonyl]-5-[2-(propan-2-yl)phenyl]pyrrolidine-2-carboxylic acid]
1000 to 10000 | 1000 to 10000 | +++ (≥350) | ++ (≥100 and <200) | COc1ncc(C(F)(F)F)cc1CO[C@H]1[C@H](C(C)(C)C)[C@@H](C(=O)O)N(C(=O)OC(C)C)[C@H]1c1ccccc1Cl [Example 99, (2S,3R,4S,5S)-3-tert-butyl-5-(2-chlorophenyl)-4-{[2-methoxy-5-(trifluoromethyl)pyridin-3-yl]methoxy}-1-{[(propan-2-yl)oxy]carbonyl}pyrrolidine-2-carboxylic acid]
1000 to 10000 | 1000 to 10000 | ++ (≥150 and <350) | + (<100) | COc1cnc(C2CCC2)cc1CO[C@H]1[C@H](C(C)(C)C)[C@@H](C(=O)O)N(C(=O)OC(C)C)[C@H]1c1ccccc1 [Example 100, (2S,3R,4S,5S)-3-tert-butyl-4-[(2-cyclobutyl-5-methoxypyridin-4-yl)methoxy]-5-phenyl-1-{[(propan-2-yl)oxy]carbonyl}pyrrolidine-2-carboxylic acid]
